# In PMC4627656, “Combining Metabolite-Based Pharmacophores with Bayesian Machine Learning Models for Mycobacterium tuberculosis Drug Discovery” (PLoS ONE, 2015):
# Tests used:
# Format in all cases: cell-based
# [1] = system: clinical MDR-TB strain 31; assay: AlamarBlue MIC (absorbance), strain panel: 31; details: Mycobacterium tuberculosis, read-out: MIC, strain 31
# [2] = system: clinical MDR-TB strain 116; assay: AlamarBlue MIC (absorbance), strain panel: 116; details: Mycobacterium tuberculosis, read-out: MIC, strain 116
# [3] = system: H37Rv (laboratory strain); assay: AlamarBlue MIC (absorbance), strain panel: H37Rv; details: Mycobacterium tuberculosis, drug resistance: None
# [4] = system: clinical MDR-TB strain 91; assay: AlamarBlue MIC (absorbance), strain panel: 91; details: Mycobacterium tuberculosis, read-out: MIC, strain 91
# [5] = system: clinical MDR-TB strain 36; assay: AlamarBlue MIC (absorbance), strain panel: 36; details: Mycobacterium tuberculosis, read-out: MIC, strain 36
# [6] = system: clinical strain 210; assay: AlamarBlue MIC (absorbance), strain panel: 210; details: Mycobacterium tuberculosis, drug resistance: None
structure (smiles),measurement,setting,value
CCCCC(=O)c1c(C)[n+]([O-])c2ccc([N+](=O)[O-])cc2[n+]1[O-] [SRI50],MIC,[1],0.31 µg/mL
same,MIC,[2],0.16 µg/mL
same,MIC,[3],0.16 µg/mL
same,MIC,[4],0.16 µg/mL
same,MIC,[5],0.16 µg/mL
same,MIC,[6],0.31 µg/mL
